Assay results published in US8318947B2, “Comestible compositions comprising high potency savory flavorants, and processes for producing them” (Senomyx, Inc., priority 2006, dated 2012).

Target: T1, hT1R1/hT1R3 umami receptor expressed in an HEK293 cell line (Homo sapiens, UniProt Q7RTX0+Q7RTX1)
T1 construct: expressed in transfected cells; host or cells: HEK293 cell line derivative, clone 1-17, expression induced with mifepristone
T1 sequence (Q7RTX1 21-841): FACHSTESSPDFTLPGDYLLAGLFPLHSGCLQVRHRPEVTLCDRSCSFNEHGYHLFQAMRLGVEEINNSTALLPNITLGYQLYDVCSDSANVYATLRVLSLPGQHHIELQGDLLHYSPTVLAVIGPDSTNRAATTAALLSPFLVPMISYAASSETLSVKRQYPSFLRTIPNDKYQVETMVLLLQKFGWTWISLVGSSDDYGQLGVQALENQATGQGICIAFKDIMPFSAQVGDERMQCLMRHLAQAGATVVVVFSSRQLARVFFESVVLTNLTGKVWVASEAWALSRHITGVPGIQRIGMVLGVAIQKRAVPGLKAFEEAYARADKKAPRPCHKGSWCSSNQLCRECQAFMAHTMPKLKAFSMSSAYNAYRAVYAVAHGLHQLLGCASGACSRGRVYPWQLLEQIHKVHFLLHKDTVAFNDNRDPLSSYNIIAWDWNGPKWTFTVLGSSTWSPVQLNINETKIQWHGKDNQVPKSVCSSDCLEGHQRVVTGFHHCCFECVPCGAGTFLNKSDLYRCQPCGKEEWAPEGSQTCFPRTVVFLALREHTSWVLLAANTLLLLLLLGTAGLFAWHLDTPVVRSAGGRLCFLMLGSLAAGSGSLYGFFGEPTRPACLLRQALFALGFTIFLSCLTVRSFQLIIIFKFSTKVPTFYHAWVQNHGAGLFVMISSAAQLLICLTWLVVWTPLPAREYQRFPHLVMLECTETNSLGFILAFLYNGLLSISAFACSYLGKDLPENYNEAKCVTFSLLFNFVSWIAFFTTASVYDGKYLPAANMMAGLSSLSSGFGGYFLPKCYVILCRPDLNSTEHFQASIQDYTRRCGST
T1 sequence (Q7RTX0 21-852): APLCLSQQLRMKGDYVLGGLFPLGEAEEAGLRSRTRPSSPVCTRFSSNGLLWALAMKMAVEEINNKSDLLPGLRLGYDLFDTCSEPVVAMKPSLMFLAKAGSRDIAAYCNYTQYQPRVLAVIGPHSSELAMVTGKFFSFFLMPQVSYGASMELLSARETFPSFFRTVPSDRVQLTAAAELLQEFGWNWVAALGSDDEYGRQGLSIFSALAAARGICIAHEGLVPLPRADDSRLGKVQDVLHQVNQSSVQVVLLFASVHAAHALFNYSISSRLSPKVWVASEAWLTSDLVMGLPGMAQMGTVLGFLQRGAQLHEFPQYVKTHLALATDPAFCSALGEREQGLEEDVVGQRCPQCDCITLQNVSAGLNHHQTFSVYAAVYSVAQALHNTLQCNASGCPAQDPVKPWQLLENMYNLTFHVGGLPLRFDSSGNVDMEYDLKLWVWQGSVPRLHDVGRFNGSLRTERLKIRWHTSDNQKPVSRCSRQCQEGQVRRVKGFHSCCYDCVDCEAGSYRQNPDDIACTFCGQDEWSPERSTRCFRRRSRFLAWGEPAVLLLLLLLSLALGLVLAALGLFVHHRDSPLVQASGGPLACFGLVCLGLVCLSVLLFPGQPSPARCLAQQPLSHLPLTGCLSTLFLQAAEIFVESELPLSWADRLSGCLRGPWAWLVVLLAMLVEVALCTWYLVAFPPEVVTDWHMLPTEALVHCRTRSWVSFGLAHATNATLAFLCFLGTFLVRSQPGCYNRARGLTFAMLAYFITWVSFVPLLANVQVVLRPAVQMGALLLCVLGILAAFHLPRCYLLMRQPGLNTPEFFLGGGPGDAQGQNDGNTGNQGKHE
Experiment: Umami taste enhancement assay (EC50 ratio vs. MSG)
Format: cell-based
Description: In umami taste enhancement activity assay experiments, which produce an “EC50 ratio” measurement of how effectively the amide compounds of the invention enhance the savory flavorant (typically MSG) already in a test solution. A series of measurements of the dose response is run in solutions comprising MSG alone, then a second dose response is run with MSG in combination with predetermined amounts of a candidate compound of Formula (I) at the same time.
In this assay, increasing concentrations of monosodium glutamate (ranging from 12 μM to 81 mM) were presented, in duplicates, in the presence or absence of a fixed concentration of the test compound. Typical compound concentrations tested were 30 μM, 10 μM, 3 μM, 1 μM, 0.3 μM, 0.1 μM and 0.03 μM. The relative efficacy of compounds of […] at enhancing the receptor was determined by calculating the magnitude of a shift in the EC50 for monosodium glutamate. Enhancement was defined as a ratio (EC50R) corresponding to the EC50 of monosodium glutamate, determined in the absence of the test compound, divided by the EC50 of monosodium glutamate, determined in the presence of the test compound.
Stated alternatively, “EC50 ratio” as compared to MSG is calculated based on the following definitions:
EC50 Ratio vs. MSG=EC50 (MSG)/EC50 (MSG+[Compound]) wherein “[compound]” refers to the concentration of the compound of Formula (I) used to elicit (or enhance or potentiate) the MSG dose response.
It should be noted that the EC50 ratio measured can depend somewhat on the concentration of the compound itself. Preferred savory enhancers would have a high EC50 Ratio vs. MSG at a low concentration of the compound used.

Row | EC50 ratio (enhancement of the effectiveness of monosodium glutamate) (compound present at 0.3 μM) | EC50 ratio (enhancement of the effectiveness of monosodium glutamate) (compound present at 0.03 μM) | Structure (SMILES)
1 | 6.51 | – | COc1ccc(CNC(=O)C(=O)NCCc2ccccn2)c(OC)c1 [Example 24, N-(2,4-Dimethoxy-benzyl)-N′-(2-pyridin-2-yl-ethyl)-oxalamide]
2 | – | 6.92 | CCCC(CCC)NC(=O)c1ccc2c(c1)OCO2 [Example 1, N-(heptan-4-yl)benzo[d][1,3]dioxole-5-carboxamide]
